In ChEMBL document CHEMBL6109175, “Ubiquitin-Specific Protease 7 (USP7) as a Promising Therapeutic Target for Drug Discovery: From Mechanisms to Therapies” (J Med Chem, 2025):
pIC50, pKd: −log10 of the molar value. Blank lines part the entries; values can stand above or below the compound they belong to.

Assays:
[1] = biological target: T1, Ubiquitin carboxyl-terminal hydrolase 7 (Homo sapiens, UniProt Q93009); test: Binding affinity to USP7 catalytic domain human USP7 (208 to 560 residues) (unknown origin) extracted from Escherichia coli assessed as dissociation constant
[2] = biological target: T1, Ubiquitin carboxyl-terminal hydrolase 7; test: Inhibition of USP7 catalytic domain human USP7 (208 to 560 residues) (unknown origin) extracted from Escherichia coli
[3] = biological target: T1, Ubiquitin carboxyl-terminal hydrolase 7; test: Inhibition of full length USP7 (unknown origin)
[4] = biological target: T1, Ubiquitin carboxyl-terminal hydrolase 7; test: Inhibition of N-terminal His-tagged USP7 catalytic domain (208 to 554 residues) (unknown origin) by TR-FRET assay

T1 sequence (Q93009 whole entry, the tested form may be a part): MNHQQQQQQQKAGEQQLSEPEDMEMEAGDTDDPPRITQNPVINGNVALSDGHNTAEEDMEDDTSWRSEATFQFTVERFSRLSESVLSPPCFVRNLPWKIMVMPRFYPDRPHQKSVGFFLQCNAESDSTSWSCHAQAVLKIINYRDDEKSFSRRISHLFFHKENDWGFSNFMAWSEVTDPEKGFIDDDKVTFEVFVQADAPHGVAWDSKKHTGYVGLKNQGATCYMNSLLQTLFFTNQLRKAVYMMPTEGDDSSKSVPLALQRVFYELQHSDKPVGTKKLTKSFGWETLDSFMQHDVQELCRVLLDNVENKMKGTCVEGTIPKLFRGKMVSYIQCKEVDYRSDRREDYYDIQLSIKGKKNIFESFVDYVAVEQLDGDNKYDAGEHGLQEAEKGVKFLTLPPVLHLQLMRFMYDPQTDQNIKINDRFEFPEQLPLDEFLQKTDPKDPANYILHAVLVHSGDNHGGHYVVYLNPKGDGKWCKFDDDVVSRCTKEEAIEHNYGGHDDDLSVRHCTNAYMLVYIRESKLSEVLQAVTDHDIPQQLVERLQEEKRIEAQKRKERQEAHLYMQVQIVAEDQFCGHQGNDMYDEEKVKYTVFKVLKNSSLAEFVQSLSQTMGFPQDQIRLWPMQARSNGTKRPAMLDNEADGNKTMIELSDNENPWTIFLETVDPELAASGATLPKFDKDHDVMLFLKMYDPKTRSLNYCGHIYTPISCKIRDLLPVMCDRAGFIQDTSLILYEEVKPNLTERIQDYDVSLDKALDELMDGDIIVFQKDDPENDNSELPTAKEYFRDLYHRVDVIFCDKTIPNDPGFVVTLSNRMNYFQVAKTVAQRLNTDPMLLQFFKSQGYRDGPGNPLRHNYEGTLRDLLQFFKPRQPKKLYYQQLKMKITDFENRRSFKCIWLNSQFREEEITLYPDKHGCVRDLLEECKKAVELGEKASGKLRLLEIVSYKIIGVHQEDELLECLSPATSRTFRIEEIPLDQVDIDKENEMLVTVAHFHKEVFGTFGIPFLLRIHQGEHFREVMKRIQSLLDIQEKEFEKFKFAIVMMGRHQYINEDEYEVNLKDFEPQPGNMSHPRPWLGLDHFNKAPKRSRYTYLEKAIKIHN

pKd [1]: 7.19
pIC50 [2]: 4.28
SMILES: O=C(C[C@@H](C(F)F)n1ccc(F)n1)N1CCC(O)(Cn2cnc3c(cnn3-c3ccc(F)cc3)c2=O)CC1

pIC50 [3]: 4.99
SMILES: O=C(CCc1ccccc1)N1CCC(O)(Cn2cnc3cc(Cl)ccc3c2=O)CC1

pIC50 [4]: 6.21
SMILES: CCc1c(-c2ccc(C(=O)NC)nc2)cnc(N)c1-c1ccc(O)cc1
